# Columns and labels:
# [1] = tested on: PD-L1 surface expression in Panc02 cells; test: PD-L1 surface protein expression by flow cytometry; type: cell-based, murine; conditions: IC50 concentration, 48 hours
# Experimental: (§1) Cells were seeded at 0.5×10^6 cells/well in 6-well plates for overnight at 37 C in a humidified atmosphere containing 5% CO2. […] The percentage maximal response is shown as a function of anti-cancer agents when administered to Panc02 cells. The cell viability was measured by the MTT assay after 96 hours of incubation at 37° C. Data represent mean±standard deviation (n=3). Significant differences are indicated as follows: *p<0.05, and **p<0.01. The expression level of PD-L1 was determined using flow cytometry as follows. Briefly, cells harvested from in vitro cultures were washed twice with 3% BSA/PBS and then incubated with rat anti-PD-L1 or isotype control antibodies (mouse, BioXcell, West Lebanon, N.H., USA) for 30 minutes at 4 C, then washed three times and incubated with anti-rat AlexaFluor 488 conjugated Antibody. The cells were washed once with 3% BSA/PBS and analyzed by flow cytometer on a FACSCalibur flow cytometer and CellQuest™ Pro version 6.0 software (both from Becton-Dickinson and Co.).
# Panc02 cells were treated with gemcitabine, Abraxane™, paclitaxel and DHA-SBT-1214 both in solution and nanoemulsion for 48 hours to determine whether they can induce PD-L1 protein expression. PD-L1 expression levels on tumor cells were determined by flow cytometry and is expressed as the A mean fluorescence intensity (ΔMFI; MFI using anti-PD-L1 subtracted from the isotype control). […] PD-L1 expression was analyzed using flow cytometry and is presented as ΔMFI (MFI using anti-PD-L1 subtracted from the isotype control). Data represent the mean±standard deviation of at least 3 independent experiments; *p<0.05, **p<0.01, ***p<0.001. As reported previously, PD-L1 level enhanced in pancreatic tumor tissues compared to in vitro growing cells as shown in FIG. 8.
# [2] = tested on: Panc02 cells; test: Cell viability (MTT assay) in Panc02 cells; type: cell-based, murine; conditions: 96 hours of drug exposure
# Experimental: The murine pancreatic cancer cell line Panc02, which is syngeneic to C57Bl/6 mice was a kind gift from Professor Michael A. Hollingsworth, UNMC, Omaha, Nebr. Panc02 cells were grown in 75 cm^2 cell culture flasks and maintained in DMEM medium supplemented with 10% fetal bovine serum (FBS), L-glutamine and penicillin (100 U/ml)/streptomycin (100 μg/ml) (both from Gibco Life Technologies, Carlsbad, Calif., USA). Cells were incubated at 37° C. in a humidified atmosphere containing 5% CO2.
# To see cytotoxic effect of different drugs and nanoemulsion formulation, 5000 cells were seeded in each well of the 96-well plate for overnight at 37° C. in a humidified atmosphere containing 5% CO2. Various drugs (Paclitaxel, Abraxane, Gemcitabine and solution and nanoemulsion of DHA-SBT-1214) were diluted at concentrations ranging from 0 nM, 0.01 nM, 0.1 nM, 1 nM, 10 nM, 100 nM, 1000 nM to 10000 nM and Panc02 cells treated with these concentrations for 96 hours. After incubation, cells were treated with 3-(4,5-dimethylthiazol-2-yl)-2,5-diphenyltetrazolium bromide ([…]). MU crystals were dissolved with DMSO and plates were read at 570 nm absorbance using a BioTek Synergy HTX Multi-Mode Microplate Reader.
# as §1, with “Briefly, cells harvested from in vitro cultures were washed twice with 3% BSA/PBS and then incubated with rat anti-PD-L1 or isotype control antibodies (mouse, BioXcell, West Lebanon, N.H., USA) for 30 minutes at 4 C, then washed three times and incubated with anti-rat AlexaFluor 488 conjugated Antibody.” left out, “Co.). […]” for “Co.).”
# [3] = tested on: Panc02 induced tumor; test: Subcutaneous Panc02 syngeneic pancreatic cancer model, single and combination therapy; type: in vivo, C57Bl/6 mice
# Experimental: In addition to evaluation of efficacy in CSC-rich PDAC models, the efficacy of NE-DHA-SBT-1214 in combination with antibody targeted to PD-L1 immune checkpoint inhibitor was examined in subcutaneous (subQ) Panc-2 syngeneic pancreatic cancer model developed in […] mice. After transplantation of the Panc-2 cells, the mice were divided into groups for weekly treatment by intravenous administration of vehicle (as control), gemcitabine (at 120 mg/kg), ABRAXANE® (at 120 mg/kg) and NE-DHA-SBT-1214 (at 10 and 25 mg/kg) as either single in combination with either IgG control or anti-PD-L1 antibody (200 μg/dose). The antibodies were administered intraperitoneally. The treatment started two weeks after tumor transplantation when tumor mass became palpable at 50 to 150 mm^3 in volume.
# All experiments involving the use of animals were carried out in strict accordance with the recommendations in the guide for the care and use of laboratory animals of the National Institutes of Health, via a research protocol that was approved by Northeastern University Institutional Animal Care and Use Committee (IACUC). […] Tumor development was monitored twice weekly. The tumor size was measured with a caliper on a weekly basis and approximate tumor volumes determined using the formula 0.5ab^2, where b is the smaller of the two perpendicular diameters. […]
IC50 ([2]; Mus musculus),Structure (SMILES),PD-L1 surface expression (ΔMFI) [1],IC50 [2],efficacy compared to abraxane at 120 mg/kg ([3]; 10 mg/kg),tumor growth suppression ([3]; 120 mg/kg weekly ×3)
,"CC/C=C\C/C=C\C/C=C\C/C=C\C/C=C\C/C=C\CCC(=O)O[C@@H](C(=O)O[C@H]1C[C@@]2(O)[C@@H](OC(=O)c3ccccc3)[C@@H]3[C@]4(OC(C)=O)CO[C@@H]4C[C@H](O)[C@@]3(C)C(=O)[C@H](OC(=O)C3CC3)C(=C1C)C2(C)C)[C@H](C=C(C)C)NC(=O)OC(C)(C)C [DHA-SBT-1214, Docosahexaenoic acid conjugate of SBT-1214]",upregulated,0.262 µM,superior to abraxane treatment,
0.154 µM,Nc1ccn([C@@H]2O[C@H](CO)[C@@H](O)C2(F)F)c(=O)n1 [gemcitabine],upregulated,,,moderate effect

# Source: patent US11497713B2, “Combination taxoid nanoemulsion with immunotherapy in cancer” (TargaGenix, Inc., priority 2017, dated 2022)
